Measurements from publication PMC8901119 (Chemical Science, 2021).
Where “and” joins values, the source holds several entries; their conditions need not be identical. Equal entries are not always repeated.

Legend:
[1] = system: Cts L; design: method as in earlier work; settings: 10 µM, 24-hour treatment; ref 20 (ESI); cited from earlier work
[2] = biological target: T1, Cathepsin L (Homo sapiens, UniProt P07711); assay: Cathepsin L inhibition assay in MDA-MB-231 cells (Magic Red); format: cell-based; settings: for Cathepsin Activity (%), single technical replicates: normalized to 0.5% DMSO + Magic Red control, biological replicates 1 and 2
T1 construct: host or cells: MDA-MB-231 cells
Experimental: Phan et al. Electronic SupplementaryInformation
Cell Culture & Cathepsin L Inhibition Assays in MDA -MB-231 Cells
MDA-MB-231 cells (ATCC, #HBT-26) were seeded at 1 x 10^5/well in a black, 24-well, TC-treated plate (Corning). Cells were cultured in 400 µL media per well containing DMEM (Corning), 10% Fetal Bovine Serum (FBS; Atlanta Biologicals), and 1% Penicillin/Streptomycin (Gibco) at 37 °C in 5% CO2. After 48 hours, the cells in each well were treated with 400 µL fresh media containing either 0.5 % DMSO (sterile filtered; Sigma Aldrich), 20 µM SID 26681509 (a known Cts L inhibitor; Tocris), 10 µM E-64 (a known cell-permeable pan cathepsin inhibitor; Tocris), or 50 µM
RS1A. Cathepsin L activity in MDA-MB-231 cells were then evaluated using ICT’s Magic Red TM cathepsin-L substrate, MR-(FR) 2, according to the manufacturer’s protocol (Immunochemistry Technologies, LLC). After incubating the cells for 24 hours in the experimental conditions, 16 µL sterile Milli-Q H 2O (for the unstained cell controls) or 16 µL 26X Magic Red staining solution was added to each well, and the 24-well plate was covered with foil for 60 minutes in a 37°C incubator with 5% CO2. The media was removed from the cell monolayer surface and the cells were rinsed Dulbecco’s phosphate-buffered saline containing Mg 2+ and Ca2+ (DPBS; Corning) (2 x 500 µL DPBS/well with 1 min/rinse). The cells were then immediately visualized at 20X magnification with an Olympus CKX53 microscope with a Reflected Light Fluorescence Illuminator equipped with a green 530-550 nm exciter filler, 570 nm dichroic mirror , and a long pass 575 nm emission/barrier filter. Images were taken by Olympus EP50 camera via the Olympic EP app on an iPhone XR. Positive cells stained with Magic Red would appear red with more brightly stained vacuoles and lysosomes. […]
Cell fluorescence from raw images was analyzed using ImageJ -Fiji. The color images were first split into RGB channels; all Red-channel images were then quantified for integrated fluorescence density across the entire images at the same threshold. […]

[3] = system: SARS-CoV-2 pseudovirus; design: method as in PMID 32221306; settings: HEK 293/hACE2 cells; cited from earlier work

T1 sequence (P07711 114-333): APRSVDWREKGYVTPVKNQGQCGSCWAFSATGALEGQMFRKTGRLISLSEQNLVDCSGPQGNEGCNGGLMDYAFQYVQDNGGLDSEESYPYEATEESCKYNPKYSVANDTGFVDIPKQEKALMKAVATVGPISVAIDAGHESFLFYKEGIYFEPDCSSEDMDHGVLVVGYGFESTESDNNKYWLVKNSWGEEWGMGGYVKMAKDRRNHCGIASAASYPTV

| SMILES | Reduction of Cts L activity in MDA-MB-231 cells [1] | Reduction of Cts L activity in MDA-MB-231 cells ([2]; 10 µM, 24 hours) | Cathepsin Activity (%), single technical replicates ([2]; 10 uM, 10 µM) | Cathepsin Activity (%), single technical replicates ([2]; 20 uM, listed as SID, 20 µM) | Decrease of SARS-CoV-2 pseudovirus entry [3] |
| --- | --- | --- | --- | --- | --- |
| CC(C)C[C@H](NC(=O)[C@H]1O[C@@H]1C(=O)O)C(=O)NCCCCN=C(N)N [E-64] | 30-40% | 32% | 74.2204% and 67.3402% and 72.3857% and 56.9211% and 49.1973% and 90.0663% |  |  |
| CCc1ccccc1NC(=O)CSC(=O)NNC(=O)[C@H](Cc1c[nH]c2ccccc12)NC(=O)OC(C)(C)C [SID 26681509] |  |  |  | 93.8537% and 84.7857% and 75.9763% and 71.3834% and 62.7105% and 65.0709% | more than 76% |
